Read-outs that look alike come from different tables or passages of the source.
Assays:
[1] = tested on: acutely dissociated and purified rat OPCs; test: Acute OL differentiation assay (MBP expression/cell, immunofluorescent image quantification); type: cell-based
Procedure, shortened: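 Oligodendrocyte precursor cells were enriched from P6-P7 Sprague–Dawley rat brains by immunopanning (RAN-2 and GalC depletion, O4 selection), plated at 5000 cells/well in serum-free, mitogen-free differentiation media on PDL/laminin 96-well view plates, centrifuged at 200×g, and pre-incubated 1–2 h before test compounds were added in quadruplicate. On DIV4, cells were fixed, stained for MBP and DAPI, imaged automatically, and MBP expression per cell was quantified.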

expanded OPCs = test: cells; conditions: for viability at 0.1 µM / viability at 1 µM / viability at 10 µM: Rattus norvegicus, 72 h; for 0.1 µM (% DMSO) / 1 µM (% DMSO) / 10 µM (% DMSO): alamarBlue viability of expanded OPCs; for 0.1 µM (% DMSO): compound at 0.1 µM; for 1 µM (% DMSO): compound at 1 µM; for 10 µM (% DMSO): compound at 10 µM
Procedure, shortened: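 Expanded OPCs seeded at 10,000 cells/well in differentiation media, then exposed to NCC library compounds at 10, 1 and 0.1 µM (quadruplicate, 0.1% DMSO) for three days. Viability read as alamarBlue fluorescence (560/590 nm) after 4 h at 37 °C; tunicamycin 5 ng/ml served as toxicity control.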

[2] = Rattus norvegicus, 0.4 uM test compound, relative to quetiapine, sheet "All OLga data", read-out: OL differentiation, 0.4 uM (% Quet)
[3] = read-out: 0.1 µM (% DMSO), alamarBlue viability of expanded OPCs, compound at 0.1 µM, sheet All Tox data
[4] = read-out: 1 µM (% DMSO), alamarBlue viability of expanded OPCs, compound at 1 µM, sheet All Tox data
[5] = read-out: 10 µM (% DMSO), alamarBlue viability of expanded OPCs, compound at 10 µM, sheet All Tox data
[6] = Rattus norvegicus, test compound at 2 uM, NCC library screen, sheet "All OLga data", relative to quetiapine, read-out: 2 uM (% Quet)
[7] = Rattus norvegicus, test compound at 10 uM, NCC library screen, sheet "All OLga data", relative to quetiapine, read-out: 10 uM (% Quet)
[8] = Rattus norvegicus, test compound at 2 uM, MBP expression relative to quetiapine, NCC library screen, sheet "All OLga data", read-out: 2 uM (% Quet)
[9] = read-out: 0.1 µM (% DMSO), alamarBlue viability, NCC library compound at 0.1 µM, sheet "All Tox data"
[10] = read-out: 1 µM (% DMSO), alamarBlue viability, NCC library compound at 1 µM, sheet "All Tox data"
[11] = read-out: 10 µM (% DMSO), alamarBlue viability, NCC library compound at 10 µM, sheet "All Tox data"
[12] = Rattus norvegicus, test compound at 0.4 uM, NCC library screen, sheet "All OLga data", relative to quetiapine, read-out: 0.4 uM (% Quet)

| SMILES | viability at 0.1 µM (expanded OPCs; [3]) | viability at 1 µM (expanded OPCs; [4]) | viability at 10 µM (expanded OPCs; [5]) | activation at 2 µM [1, 6] | activation at 10 µM [1, 7] | 0.1 µM (% DMSO) (expanded OPCs; relative to DMSO control) | 1 µM (% DMSO) (expanded OPCs; relative to DMSO control) | 10 µM (% DMSO) (expanded OPCs; relative to DMSO control) | viability at 0.1 µM (expanded OPCs; [9]) | viability at 1 µM (expanded OPCs; [10]) | viability at 10 µM (expanded OPCs; [11]) | further results |
| --- | --- | --- | --- | --- | --- | --- | --- | --- | --- | --- | --- | --- |
| O=c1c(-c2ccccc2)c1-c1ccccc1 [Diphenylcyclopropenone] | 73.9% | 65% | 11.7% | – | – | – | – | – | – | – | – | activation at 0.4 µM [1, 2]: 8.6% |
| OCCN(CCO)c1nc(N2CCCCC2)c2nc(N(CCO)CCO)nc(N3CCCCC3)c2n1 [Dipyridamole] | – | – | – | 13.5% | -27.3% | 107.4 % DMSO | 102.2 % DMSO | 87.5 % DMSO | – | – | – | – |
| CC(C)N(CCC(C(N)=O)(c1ccccc1)c1ccccn1)C(C)C (centres unmarked) [Disopyramide] | – | – | – | – | – | 89.6 % DMSO | 92.1 % DMSO | 88.7 % DMSO | – | – | – | activation at 2 µM [1, 8]: -10.1%; activation at 10 µM ([1]; Rattus norvegicus, test compound at 10 uM, MBP expression relative to quetiapine, NCC library screen, sheet "All OLga data", read-out: 10 uM (% Quet)): -11.2% |
| O=C1c2c(O)cc(O)cc2OC(c2ccc(O)c(O)c2)C1O (centres unmarked) [Distylin] | – | – | – | – | – | – | – | – | – | – | – | OL differentiation, 2 uM (% Quet) ([1]; 2 uM test compound, relative to quetiapine, sheet "All OLga data"): 7.2 % Quet; OL differentiation, 10 uM (% Quet) ([1]; 10 uM test compound, relative to quetiapine, sheet "All OLga data"): -26.1 % Quet; 0.1 µM (% DMSO) (expanded OPCs; sheet All Tox data): 109.5 % DMSO; 1 µM (% DMSO) (expanded OPCs; sheet All Tox data): 92.1 % DMSO; 10 µM (% DMSO) (expanded OPCs; sheet All Tox data): 99.3 % DMSO |
| CCN(CC)C(=S)SSC(=S)N(CC)CC [Disulfiram] | 22.6% | 18.1% | 13.8% | – | – | – | – | – | – | – | – | activation at 0.4 µM [1, 2]: -180% |
| CC(=O)O[C@@]12CO[C@@H]1C[C@H](O)[C@@]1(C)C(=O)[C@H](O)C3=C(C)[C@@H](OC(=O)[C@H](O)[C@@H](NC(=O)OC(C)(C)C)c4ccccc4)C[C@@](O)([C@@H](OC(=O)c4ccccc4)[C@H]21)C3(C)C [Docetaxel] | 39.1% | 38.8% | 47.6% | – | – | – | – | – | – | – | – | activation at 0.08 µM ([1]; Rattus norvegicus, 0.08 uM test compound, relative to quetiapine, sheet "All OLga data", read-out: OL differentiation, 0.08 uM (% Quet)): -94.4%; activation at 0.4 µM [1, 2]: -105% |
| CN(CCOc1ccc(NS(C)(=O)=O)cc1)CCc1ccc(NS(C)(=O)=O)cc1 [Dofetilide, reference compound] | – | – | – | 19.4% | 31.8% | – | – | – | 96.1% | 98% | 122% | EC50 ([1]; Rattus norvegicus, average EC50 for induction of OL differentiation from independent biological replicates, eight concentrations): 14 µM; hit in OL differentiation assay, MRF-TMC ([1]; ● = confirmed hit in this paper's assay): ● |
| O=C(O[C@@H]1C[C@@H]2C[C@H]3C[C@H](C1)N2CC3=O)c1c[nH]c2ccccc12 [Dolasetron] | – | – | – | 4.6% | 18.1% | – | – | – | 81% | 81.8% | 63.4% | – |
| NCCc1ccc(O)c(O)c1 [Dopamine] | – | – | – | -24.9% | – | – | – | – | 87% | 74.7% | 51.7% | activation at 0.4 µM [1, 12]: 3.4% |
| CCN1CC(CCN2CCOCC2)C(c2ccccc2)(c2ccccc2)C1=O (centres unmarked) [Doxapram] | – | – | – | -8.9% | 14.8% | – | – | – | 89% | 89.2% | 79.9% | – |
| COc1cc2nc(N3CCN(C(=O)C4COc5ccccc5O4)CC3)nc(N)c2cc1OC (centres unmarked) [Doxazosin] | – | – | – | – | – | 140.5 % DMSO | 157.6 % DMSO | 18.9 % DMSO | – | – | – | activation at 0.4 µM ([1]; Rattus norvegicus, test compound at 0.4 uM, MBP expression relative to quetiapine, NCC library screen, sheet "All OLga data", read-out: 0.4 uM (% Quet)): 2%; activation at 2 µM [1, 8]: -27.2% |
| CN(C)CCC=C1c2ccccc2COc2ccccc21 [Doxepin] | 81.5% | 85% | 64.4% | 36% | – | 109.3 % DMSO | 91.6 % DMSO | 52.1 % DMSO | – | – | – | activation at 2 µM ([1]; Rattus norvegicus, 2 uM test compound, relative to quetiapine, sheet "All OLga data", read-out: OL differentiation, 2 uM (% Quet)): 47.3%; activation at 10 µM ([1]; Rattus norvegicus, 10 uM test compound, relative to quetiapine, sheet "All OLga data", read-out: OL differentiation, 10 uM (% Quet)): 37.1%; activation at 0.4 µM [1, 12]: 2.7% |

Reference: article PMC5011342, “A high throughput drug screening assay to identify compounds that promote oligodendrocyte differentiation using acutely dissociated and purified oligodendrocyte precursor cells” (BMC Research Notes, 2016)
